The text below walks through data of patent publication US9284325B2, “Spectinamides as anti-tuberculosis agents” (UNIVERSITY OF TENNESSEE RESEARCH FOUNDATION, priority 2009, dated 2016).

For assay [1], the system named is Burkholderia cepacia ATCC 25416. Nature of the assay: MIC determination by microbroth dilution. Type of assay: cell-based. To be noted: ATCC25416, read-out: MIC B. cepcia. For orientation: In broth dilution the organism is exposed to a series of concentrations in liquid medium.
A further assay has as its system P. aeruginosa PAO1. Briefly: MIC determination by microbroth dilution. Type of assay: cell-based, Pseudomonas aeruginosa. To be noted: Pseudomonas aeruginosa.
In a further assay the test system is B. anthracis Sterne 34F2. Briefly: microbe, parasite or virus in culture. Type of assay: cell-based, Bacillus anthracis. To be noted: Bacillus anthracis, STERNE34F2, read-out: MIC B. anthracis 34F2.
The subject of assay [2] is Klebsiella pneumoniae ATCC 33495. Nature of the assay: MIC determination by microbroth dilution. Type of assay: cell-based. Conditions: ATCC33495.
Assay [3] deals with Acinetobacter baumannii ATCC 19606. Briefly: MIC determination by microbroth dilution. Type of assay: cell-based. To be noted: ATCC19606.
A further assay has as its system E. coli K12 ΔtolC. Briefly: microbe, parasite or virus in culture. The assay is classed as cell-based. Conditions: Escherichia coli, read-out: MIC E. coli K12 ΔtolC.
Assay [4] has as its system Proteus mirabilis ATCC 25933. Briefly: MIC determination by microbroth dilution. Conditions: ATCC25933. Type of assay: cell-based.
Another assay concerns E. coli K12. Briefly: MIC determination by microbroth dilution. Type of assay: cell-based, Escherichia coli. To be noted: Escherichia coli, K12.
Assay [5] relates to Proteus vulgaris ATCC 33420. Briefly: MIC determination by microbroth dilution. To be noted: ATCC33420. Type of assay: cell-based.
The test system of assay [6] is S. aureus 8325 or strain ATCC 29213. Briefly: MIC determination by microbroth dilution. Type of assay: cell-based, Staphylococcus aureus. To be noted: Staphylococcus aureus, ATCC29213; S. aureus 8325 or strain ATCC 29213 (for 1471-1544).
In assay [7] the test system is Strep. pyogenes ATCC 700294. Nature of the assay: MIC determination by microbroth dilution. The assay is classed as cell-based, Streptococcus pyogenes. To be noted: Streptococcus pyogenes, ATCC700294, read-out: MIC S. pyogenes.
Assay [8] deals with Strep. pneumoniae DAW27 or strain R6. Briefly: MIC determination by microbroth dilution. Type of assay: cell-based, Streptococcus pneumoniae. Conditions: Streptococcus pneumoniae; Strep. pneumoniae DAW27 or strain R6 (for 1443-1544); read-out: MIC S. pneumoniae.
The next assay deals with M. tuberculosis H37Rv. Nature of the assay: MIC determination by microbroth dilution, anti-tuberculosis activity. Type of assay: cell-based, Mycobacterium tuberculosis. Conditions: Mycobacterium tuberculosis, H37RV, 168 h; read-out: MIC.
In a further assay the test system is E. faecalis ATCC 33186. Briefly: MIC determination by microbroth dilution. To be noted: Enterococcus faecalis, ATCC33186. Type of assay: cell-based, Enterococcus faecalis.
Assay [9] concerns Strenotrophomonas maltophilia ATCC 13637. Nature of the assay: MIC determination by microbroth dilution. The assay is classed as cell-based.

Where a name gives a salt, the structure may show the parent alone.

Consider `CN[C@@H]1[C@H](O)[C@H](NC)C2O[C@]3(O)C(OC2[C@H]1O)O[C@H](C)C[C@H]3NC(=O)Cc1cccc(C)c1` (stereo partly drawn) [Compound 1412, 3′-Dihydro-3′-deoxy-4(R)-m-tolylacetylamino spectinomycin Dihydrochloride], for which the MIC is above 200 µg/mL in assay [1]; 100 µg/mL against P. aeruginosa PAO1; 100 µg/mL in the assay with B. anthracis Sterne 34F2; above 200 µg/mL in assay [2]; above 200 µg/mL in assay [3]; 200 µg/mL with E. coli K12 ΔtolC. Also, the MIC in assay [4] is above 200 µg/mL; against E. coli K12, above 200 µg/mL; in [5], above 200 µg/mL; in assay [6] it was 50 µg/mL; in assay [7], 25 µg/mL; in [8] it was 25 µg/mL. Besides, the MIC was 25 µg/mL in the assay with M. tuberculosis H37Rv, 200 µg/mL against E. faecalis ATCC 33186 and above 200 µg/mL in assay [9].

In the case of `CN[C@@H]1[C@H](O)[C@H](NC)C2O[C@]3(O)C(OC2[C@H]1O)O[C@H](C)C[C@H]3NC(=O)Cc1ccc(-c2ccccc2)cn1` (stereo partly drawn) [Compound 1519, 3′-Dihydro-3′-deoxy-4(R)-(5-phenylpyridin-2-yl)acetylamino spectinomycin trihydrobromide], the MIC in assay [1] is above 200 µg/mL; with P. aeruginosa PAO1 it was above 200 µg/mL; in the assay with B. anthracis Sterne 34F2, above 200 µg/mL; in [2], above 200 µg/mL; in assay [3], above 200 µg/mL; in the assay on E. coli K12 ΔtolC, 12.5 µg/mL. Moreover, the MIC in assay [4] was above 200 µg/mL; in the assay with E. coli K12, above 200 µg/mL; in assay [5], above 200 µg/mL; in assay [6], 100 µg/mL; in assay [7] it was 12.5 µg/mL; in assay [8], 3.1 µg/mL. Also, the MIC was 3.12 µg/mL in the assay with M. tuberculosis H37Rv, 25 µg/mL in the assay on E. faecalis ATCC 33186 and above 200 µg/mL in [9].

With `CN[C@@H]1[C@H](O)[C@H](NC)C2O[C@]3(O)C(OC2[C@H]1O)O[C@H](C)C[C@H]3NC(=O)Cc1csc(Nc2ccc(C(F)(F)F)cc2)n1` (stereo partly drawn) [Compound 1541, 3′-Dihydro-3′-deoxy-4(R)-(2-((4-(trifluoromethyl)phenyl)amino)-thiazol-4-yl)acetylamino spectinomycin tribromide], the MIC is above 200 µg/mL in [1]; 25 µg/mL against P. aeruginosa PAO1; above 200 µg/mL in the assay with B. anthracis Sterne 34F2; above 200 µg/mL in [2]; above 200 µg/mL in assay [3]; 12.5 µg/mL in the assay with E. coli K12 ΔtolC. Further, the MIC in assay [4] was above 200 µg/mL; against E. coli K12 it was above 200 µg/mL; in [5], above 200 µg/mL; in assay [6], 100 µg/mL; in assay [7] it was 6.25 µg/mL; in assay [8], 3.1 µg/mL. In addition, the MIC in the assay on M. tuberculosis H37Rv is 6.25 µg/mL; against E. faecalis ATCC 33186 it was 25 µg/mL; in assay [9], 200 µg/mL.

For the molecule `CN[C@@H]1[C@H](O)[C@H](NC)C2O[C@]3(O)C(OC2[C@H]1O)O[C@H](C)C[C@H]3NC(=O)[C@@H](N)C(C)C` (stereo partly drawn) [Compound 1486, 3′-Dihydro-3′-deoxy-4(R)-[2(S)-amino,3-methyl]butanoylamino spectinomycin Trihydrochloride], the MIC (in [1]; against P. aeruginosa PAO1; in the assay with B. anthracis Sterne 34F2; in assay [2]; in assay [3]; in the assay on E. coli K12 ΔtolC) was above 200 µg/mL each time. The MIC in assay [4] was above 200 µg/mL; in [5], above 200 µg/mL; in [6], above 200 µg/mL; in [7], 50 µg/mL; in [8], above 200 µg/mL; in the assay with M. tuberculosis H37Rv, 200 µg/mL. Besides, the MIC (in the assay on E. faecalis ATCC 33186; in [9]) was above 200 µg/mL in each case.

For `CN[C@@H]1[C@H](O)[C@H](NC)C2O[C@]3(O)C(OC2[C@H]1O)O[C@H](C)C[C@H]3NC(=O)Cc1cccnn1` (stereo partly drawn) [Compound 1449, 3′-Dihydro-3′-deoxy-4(R)-(pyridazin-3-yl)acetylamino spectinomycin tetra hydrobromide], the MIC is above 200 µg/mL in assay [1]; above 200 µg/mL against P. aeruginosa PAO1; above 200 µg/mL with B. anthracis Sterne 34F2; above 200 µg/mL in assay [2]; above 200 µg/mL in assay [3]; 100 µg/mL with E. coli K12 ΔtolC. The MIC in assay [4] is above 200 µg/mL; in the assay on E. coli K12 it was above 200 µg/mL; in assay [5], above 200 µg/mL; in assay [6], above 200 µg/mL; in [7] it was 200 µg/mL; in [8] it was 25 µg/mL. Besides, the MIC was 25 µg/mL in the assay with M. tuberculosis H37Rv, above 200 µg/mL against E. faecalis ATCC 33186 and above 200 µg/mL in assay [9].

With `CN[C@@H]1[C@H](O)[C@H](NC)C2O[C@]3(O)C(OC2[C@H]1O)O[C@H](C)C[C@H]3NC(=O)Cc1cc(Cl)ccn1` (stereo partly drawn) [Compound 1544, 3′-Dihydro-3′-deoxy-4(R)-(4-chloropyridin-2-yl)acetylamino spec-tinomycin tribromide], the MIC in [1] was above 200 µg/mL; in the assay with P. aeruginosa PAO1, above 200 µg/mL; in the assay with B. anthracis Sterne 34F2 it was above 200 µg/mL; in assay [2] it was above 200 µg/mL; in [3] it was above 200 µg/mL; in the assay on E. coli K12 ΔtolC, 12.5 µg/mL. Besides, the MIC in assay [4] was above 200 µg/mL; against E. coli K12, above 200 µg/mL; in [5] it was above 200 µg/mL; in assay [6], 50 µg/mL; in assay [7], 12.5 µg/mL; in assay [8], 6.25 µg/mL. The MIC with M. tuberculosis H37Rv is 0.8 µg/mL; in the assay with E. faecalis ATCC 33186, 100 µg/mL; in [9], above 200 µg/mL.

Take `CN[C@@H]1[C@H](O)[C@H](NC)C2O[C@]3(O)C(OC2[C@H]1O)O[C@H](C)C[C@H]3NC(=O)[C@@H](N)Cc1ccccc1` (stereo partly drawn) [Compound 1515, 3′-Dihydro-3′-deoxy-4(R)-[2(S)-amino,3-phenyl]propanoylamino spectinomycin Trihydrochloride]: the MIC in [1] was above 200 µg/mL; against P. aeruginosa PAO1 it was above 200 µg/mL; with B. anthracis Sterne 34F2, above 200 µg/mL; in assay [2], above 200 µg/mL; in assay [3], above 200 µg/mL; with E. coli K12 ΔtolC it was 12.5 µg/mL. Besides, the MIC in [4] was above 200 µg/mL; against E. coli K12, above 200 µg/mL; in assay [5], 100 µg/mL; in [6], above 200 µg/mL; in assay [7], 12.5 µg/mL; in [8] it was 6.25 µg/mL. Besides, the MIC in the assay with M. tuberculosis H37Rv is 200 µg/mL; against E. faecalis ATCC 33186, above 200 µg/mL; in [9] it was above 200 µg/mL.

Consider `CN[C@@H]1[C@H](O)[C@H](NC)C2O[C@]3(O)C(OC2[C@H]1O)O[C@H](C)C[C@H]3NC(=O)[C@@H](C)N` (stereo partly drawn) [Compound 1501, 3′-Dihydro-3′-deoxy-4(R)[2(R)-amino]propanoylamino spectinomycin Trihydrochloride], for which the MIC (in assay [1]; with P. aeruginosa PAO1; in the assay on B. anthracis Sterne 34F2; in assay [2]; in assay [3]; in the assay with E. coli K12 ΔtolC) was above 200 µg/mL throughout. Further, the MIC (in assay [4]; in the assay on E. coli K12; in assay [5]; in assay [6]; in assay [7]; in [8]) was above 200 µg/mL throughout. Moreover, the MIC (with M. tuberculosis H37Rv; in the assay on E. faecalis ATCC 33186; in assay [9]) was above 200 µg/mL each time.

In the case of `CN[C@@H]1[C@H](O)[C@H](NC)C2O[C@]3(O)C(OC2[C@H]1O)O[C@H](C)C[C@H]3NCCc1ccccc1` (stereo partly drawn) [Compound 1450, 3′-Dihydro-3′-deoxy-4(R)-2-phenylethylamino spectinomycin Trihydrochloride], the MIC in the assay with M. tuberculosis H37Rv is 200 µg/mL.

Take `CC[C@H](C)[C@H](N)C(=O)N[C@@H]1C[C@@H](C)OC2OC3C(O[C@]21O)[C@@H](NC)[C@@H](O)[C@@H](NC)[C@@H]3O` (stereo partly drawn) [Compound 1485, 3′-Dihydro-3′-deoxy-4(R)-[(2S,3S)-2-amino,3-methyl]pentanoylamino spectinomycin Trihydrochloride]: the MIC (in [1]; against P. aeruginosa PAO1; in the assay with B. anthracis Sterne 34F2; in assay [2]; in assay [3]; with E. coli K12 ΔtolC) was above 200 µg/mL throughout. The MIC is above 200 µg/mL in assay [4]; above 200 µg/mL in assay [5]; above 200 µg/mL in assay [6]; 25 µg/mL in assay [7]; 25 µg/mL in assay [8]; 200 µg/mL in the assay with M. tuberculosis H37Rv. Besides, the MIC (against E. faecalis ATCC 33186; in assay [9]) was above 200 µg/mL in each case.
